Source: publication PMC6098982 (Natural product research, 2018)

Assays:
[1] = target: CB2 receptor (Homo sapiens, UniProt P34972); experiment: CB2 receptor displacement; format: binding
[2] = target: Delta opioid receptor (Homo sapiens, UniProt P41143); experiment: Delta opioid receptor displacement; format: binding
[3] = target: Mu opioid receptor (Homo sapiens, UniProt P35372); experiment: Mu opioid receptor displacement; format: binding
[4] = test system: Leishmania donovani; experiment: Activity towards Leishmania donovani; format: cell-based
[5] = test system: Trypanosoma brucei; experiment: Inhibition of Trypanosoma brucei; format: cell-based
[6] = test system: Escherichia coli; experiment: Inhibition of Escherichia coli; format: cell-based

CB2 receptor, sequence (P34972 whole entry): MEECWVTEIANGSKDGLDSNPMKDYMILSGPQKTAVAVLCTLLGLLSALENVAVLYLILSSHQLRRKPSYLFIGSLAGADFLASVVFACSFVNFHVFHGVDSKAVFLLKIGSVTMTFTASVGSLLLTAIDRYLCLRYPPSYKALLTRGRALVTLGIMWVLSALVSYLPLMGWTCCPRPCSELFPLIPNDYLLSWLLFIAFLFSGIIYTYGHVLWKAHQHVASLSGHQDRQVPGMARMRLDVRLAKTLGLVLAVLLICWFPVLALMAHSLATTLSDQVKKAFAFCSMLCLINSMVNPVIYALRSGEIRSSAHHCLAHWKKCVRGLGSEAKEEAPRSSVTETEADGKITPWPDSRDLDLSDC
Delta opioid receptor, sequence (P41143 whole entry): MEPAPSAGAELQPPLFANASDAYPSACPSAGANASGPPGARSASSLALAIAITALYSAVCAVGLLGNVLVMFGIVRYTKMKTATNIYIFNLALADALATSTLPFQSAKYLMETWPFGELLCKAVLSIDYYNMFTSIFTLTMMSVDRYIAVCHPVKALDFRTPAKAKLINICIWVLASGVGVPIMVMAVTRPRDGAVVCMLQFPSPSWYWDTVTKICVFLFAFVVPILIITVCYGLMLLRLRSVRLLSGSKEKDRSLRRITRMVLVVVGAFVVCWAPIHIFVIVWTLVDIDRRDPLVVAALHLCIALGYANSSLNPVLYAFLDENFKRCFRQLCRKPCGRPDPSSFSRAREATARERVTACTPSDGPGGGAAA
Mu opioid receptor, sequence (P35372 whole entry): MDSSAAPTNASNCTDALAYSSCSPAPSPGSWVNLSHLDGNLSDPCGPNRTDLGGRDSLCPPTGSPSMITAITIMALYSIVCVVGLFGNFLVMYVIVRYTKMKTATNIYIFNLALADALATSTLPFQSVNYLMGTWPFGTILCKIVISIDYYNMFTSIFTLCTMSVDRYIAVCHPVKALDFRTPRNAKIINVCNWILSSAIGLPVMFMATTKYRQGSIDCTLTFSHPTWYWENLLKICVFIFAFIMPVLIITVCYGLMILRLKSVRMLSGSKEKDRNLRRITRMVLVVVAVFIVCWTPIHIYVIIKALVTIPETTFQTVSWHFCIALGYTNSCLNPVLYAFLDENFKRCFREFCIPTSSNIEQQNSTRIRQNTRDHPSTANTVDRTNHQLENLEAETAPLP

Row | IC50 [1] | displacement in CB2 receptor [1] | displacement in Delta opioid receptor [2] | displacement in Mu opioid receptor [3] | IC50 ([4]; Leishmania donovani, read-out: IC50 Leishmania donovani) | IC50 ([5]; Trypanosoma brucei, read-out: IC50 T. brucei) | Molecule | activity towards Leishmania donovani [4] | inhibition towards Trypanosoma brucei [5] | inhibition towards Escherichia coli Pinh [6] | IC50 ([6]; read-out: IC50 Escherichia coli)
1 | 56.5 µM | 73% | 65% | 49% | 9.3 µM | 4.16 µM | CC1=C[C@H](O)CC(C)(C)[C@H]1/C=C/C(C)=C/C=C/C(C)=C/C=C/C=C(C)/C=C/C=C(C)/C=C/C1=C(C)C[C@@H](O)CC1(C)C [Compound 4, lutein] | 48% | 93% | – | –
2 | – | – | – | – | – | – | myricitrin [Compound 11] | – | – | 99% | 1.12 µM
